According to patent US20230250096A1, “SUBSTITUTED PHENYL-1H-PYRROLO[2,3-c] PYRIDINE DERIVATIVES” (Janssen Pharmaceutica NV, priority 2021, published 2023):
Like-named read-outs stand apart in the source and are kept apart here.

How the values were obtained:
KO-52 cells = assay: Proliferation assay (spheroid confluence, 8 days), KO-52 control cell line; assay type: cell-based, human; settings: read-out: spheroid assay_KO-52 IC50
Outline: (§1)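 Cells grown as spheroids in ultra-low attachment round-bottom wells (200 MOLM14 or OCI-AML3, 300 KO-52 per well) with compound dilutions at 0.3% DMSO, 8 days, 37° C. Confluence from live-cell imaging at day 8; % effect normalized to DMSO and high-dose reference/staurosporin, absolute IC50 from variable-slope fit.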

OCI-AML3 cells = assay: Proliferation assay (spheroid confluence, 8 days), OCI-AML3; assay type: cell-based, human; settings: Homo sapiens, OCI-AML-3, OCI-AML3; read-out: spheroid assay_OCI-AML3 IC50
Outline: as §1

IC50 (OCI-AML3 cells) | Structure (SMILES) | IC50 (KO-52 cells; Homo sapiens) | IC50 (KO-52 cells)
 | CCN(C(=O)c1cc(F)ccc1-n1cc(CC2CN(C(C(C)C)[C@H]3C[C@@H](N4C[C@H]5CN(C(C)=O)C[C@@H]5C4)C3)C2)c2c(C)cncc21)C(C)C (mixture of isomers) [Compound 38a] | 800 nM | 
 | Cc1cncc2c1c(C[C@H]1CCN(C(C)C3CCOCC3)C1)cn2-c1ccc(F)cc1C(=O)N(C)C(C)C (mixture of isomers) [Compound 49] | 3000 nM | 
 | CC(=O)N1CCN([C@H]2C[C@@H]([C@@H](C(C)C)N3CC(Cc4cn(-c5ccc(F)cc5C(=O)N(C)C(C)C)c5cncc(C)c45)C3)C2)CC1 (single isomer, unassigned) [Compound 32a] | 5500 nM | 
 | CC(=O)N1C[C@@H]2CN([C@H]3C[C@@H]([C@@H](C(C)C)N4CC(Cc5cn(-c6ccc(F)cc6C(=O)N(C)C(C)C)c6cncc(Cl)c56)C4)C3)C[C@H]2C1 (single isomer, unassigned) [Compound 39a] | > 15000 nM | 
 | Cc1cncc2c1c(C[C@@H]1CCN(CC3CCOCC3)C1)cn2-c1ccc(F)cc1C(=O)N(C)C(C)C (single isomer, unassigned) [Compound 42] | 2800 nM | 
23 nM | Cc1cncc2c1c(C[C@H]1CCN(CC3CCOCC3)C1)cn2-c1ccc(F)cc1C(=O)N(C)C(C)C (single isomer, unassigned) [Compound 43] | 3300 nM | 
 | Cc1cncc2c1c(C[C@@H]1CCN(CC(C)C)C1)cn2-c1ccc(F)cc1C(=O)N(C)C(C)C (single isomer, unassigned) [Compound 44] | 4700 nM | 
 | Cc1cncc2c1c(C[C@H]1CCN(CC(C)C)C1)cn2-c1ccc(F)cc1C(=O)N(C)C(C)C (single isomer, unassigned) [Compound 45] | 6200 nM | 
7 nM | Cc1cncc2c1c(C[C@H]1CCN([C@@H](C)C3CCOCC3)C1)cn2-c1ccc(F)cc1C(=O)N(C)C(C)C (single isomer, unassigned) [Compound 49b] | 4100 nM | 
 | CC(=O)N1CCC(CN2CC[C@@H](Cc3cn(-c4ccc(F)cc4C(=O)N(C)C(C)C)c4cncc(C)c34)C2)CC1 (single isomer, unassigned) [Compound 50] | 2300 nM | 
12 nM | COCC(=O)N1CCC(CN2CCC(Cc3cn(-c4ccc(F)cc4C(=O)N(C)C(C)C)c4cncc(C)c34)C2)CC1 (single isomer, unassigned) [Compound 59] | 2100 nM | 
13 nM | Cc1cncc2c1c(CC1CCN(CC3CCN(C(=O)CC#N)CC3)C1)cn2-c1ccc(F)cc1C(=O)N(C)C(C)C (single isomer, unassigned) [Compound 60] | 2700 nM | 
21 nM | Cc1cncc2c1c(C[C@H]1CCN(C[C@H]3CC[C@H](NS(C)(=O)=O)CC3)C1)cn2-c1ccc(F)cc1C(=O)N(C)C(C)C (single isomer, unassigned) [Compound 69] | 11000 nM | 
68 nM | CNC(=O)[C@H]1CC[C@H](CN2CCC(Cc3cn(-c4ccc(F)cc4C(=O)N(C)C(C)C)c4cncc(C)c34)C2)CC1 (single isomer, unassigned) [Compound 70] | 8500 nM | 
 | CNC(=O)[C@H]1CC[C@H](CN2CCC(Cc3cn(-c4ccc(F)cc4C(=O)N(C)C(C)C)c4cncc(C)c34)C2)CC1 (single isomer, unassigned) [Compound 71] |  | > 15000 nM
11 nM | Cc1cncc2c1c(C[C@@H]1CCN(CC3CCOCC3)C1)cn2-c1ccc(F)cc1C(=O)N(C[C@H](C)O)C(C)C (single isomer, unassigned) [Compound 365b] |  | 
 | COCCN(C)CCCC(C(C)C)N1CC[C@@H](Cc2cn(-c3ccc(F)cc3C(=O)N(C)C(C)C)c3cncc(C)c23)C1 (stereo partly drawn) [Compound 1] | 7500 nM | 
 | Cc1cncc2c1c(CC1CN([C@@H](C(C)C)[C@H]3C[C@@H](N4CCC(S(C)(=O)=O)CC4)C3)C1)cn2-c1ccc(F)cc1C(=O)N(C)C(C)C [Compound 33a] | 3000 nM | 
 | CCN(C(=O)c1cc(F)ccc1-n1cc(CC2CN(C(C(C)C)[C@H]3C[C@@H](N4CCN(S(C)(=O)=O)CC4)C3)C2)c2c(C)cncc21)C(C)C (stereo partly drawn) [Compound 37a] | 800 nM | 
 | CC(C)C([C@H]1C[C@@H](N(C)C)C1)N1CC(Cc2cn(-c3ccc(F)cc3C(=O)N(C)C(C)C)c3cncc(Cl)c23)C1 (stereo partly drawn) [Compound 41] | 1400 nM | 
 | CC(=O)N1CCC(CN2CCC(Cc3cn(-c4ccc(F)cc4C(=O)N(C)C(C)C)c4cncc(C)c34)CC2)CC1 [Compound 58] | 10400 nM | 
 | Cc1cncc2c1c(CC1CN(CC3CCOCC3)C1)cn2-c1ccc(F)cc1C(=O)N(C)C(C)C [Compound 61] | 7900 nM | 
121 nM | CC(=O)N1CCC(CN2CC(Cc3cn(-c4ccc(F)cc4C(=O)N(C)C(C)C)c4cncc(C)c34)C2)CC1 [Compound 63] | 5900 nM | 
 | COCC(=O)N1CCC(CN2CC(Cc3cn(-c4ccc(F)cc4C(=O)N(C)C(C)C)c4cncc(C)c34)C2)CC1 [Compound 66] | 7700 nM | 
 | Cc1cncc2c1c(CC1CN(CC3CCN(C(=O)CC#N)CC3)C1)cn2-c1ccc(F)cc1C(=O)N(C)C(C)C [Compound 67] | 12000 nM | 
 | Cc1cncc2c1c(C[C@@H]1CCN(CC3CCOCC3)C1)cn2-c1ccc(F)cc1C(=O)N(CCO)C(C)C [Compound 357] | 3000 nM | 
